Test system: 171881-019-R-J1-PDC tumor spheroid viability
Test: Anticancer human tumor 171881-019-R-J1-PDC patient-derived invasive breast carcinoma cell line growth inhibition [PI3K]
Conditions: spheroids with HUVEC and MSC; for IC50: curve of first compound; for viability, T/C: stronger effect = lower value
How it was run: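 Tumor cells grown as multi-cell spheroids with HUVEC endothelial cells and MSC fibroblast-like stroma were treated with targeted agents combined with inavolisib, alpelisib, duvelisib or copanlisib. Doses fell in half-log steps from near clinical Cmax, else from 10 microM. Viability was measured.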

[1] = second compound 0.0316 µM, first compound 0.0316 µM
[2] = second compound 0.0316 µM, first compound 0.1 µM
[3] = second compound 0.1 µM, first compound 0.0316 µM
[4] = second compound 0.1 µM, first compound 0.1 µM
[5] = second compound 0.316 µM, first compound 0.0316 µM
[6] = second compound 0.316 µM, first compound 0.1 µM
[7] = second compound 1 µM, first compound 0.0316 µM
[8] = second compound 1 µM, first compound 0.1 µM
[9] = second compound 3.16 µM, first compound 0.0316 µM
[10] = second compound 3.16 µM, first compound 0.1 µM
[11] = second compound 10 µM, first compound 0.0316 µM
[12] = second compound 10 µM, first compound 0.1 µM
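Further: spheroids exposed to compound for 7 days before viability read.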
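Wherever viability, T/C is given: 100% = DMSO vehicle-treated spheroids.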

In the case of `Cn1ncnc1[C@H]1c2n[nH]c(=O)c3cc(F)cc(c23)N[C@@H]1c1ccc(F)cc1` + Cc1nc(NC(=O)N2CCCC2C(N)=O)sc1-c1ccnc(C(C)(C)C(F)(F)F)c1, the IC50 (second compound 0.0316 µM) is reported as greater than 100 nM, the IC50 (second compound 0.1 µM) is reported as greater than 100 nM and the IC50 (second compound 0.316 µM) is reported as greater than 100 nM. The IC50 (second compound 1 µM) was less than 0.316 nM, the IC50 (second compound 3.16 µM) was less than 0.316 nM and the IC50 (second compound 10 µM) was less than 0.316 nM. For the same molecule, the viability, T/C (second compound 0.0316 µM, first compound 0.000316 µM) was 96.5%, the viability, T/C (second compound 0.0316 µM, first compound 0.001 µM) was 91% and the viability, T/C (second compound 0.0316 µM, first compound 0.00316 µM) was 84.8%. For the same molecule, the viability, T/C (second compound 0.0316 µM, first compound 0.01 µM) was 88.8%, the viability, T/C [1] was 86.3% and the viability, T/C [2] was 79.8%. The viability, T/C (second compound 0.1 µM, first compound 0.000316 µM) was 86.7%, the viability, T/C (second compound 0.1 µM, first compound 0.001 µM) was 65.1% and the viability, T/C (second compound 0.1 µM, first compound 0.00316 µM) was 76.4%. The viability, T/C (second compound 0.1 µM, first compound 0.01 µM) was 73.1%, the viability, T/C [3] was 74.1% and the viability, T/C [4] was 66.6%. The viability, T/C (second compound 0.316 µM, first compound 0.000316 µM) was 50.2%, the viability, T/C (second compound 0.316 µM, first compound 0.001 µM) was 56.3% and the viability, T/C (second compound 0.316 µM, first compound 0.00316 µM) was 51.6%. For the same molecule, the viability, T/C (second compound 0.316 µM, first compound 0.01 µM) was 56.4%, the viability, T/C [5] was 55% and the viability, T/C [6] was 46.6%. The viability, T/C (second compound 1 µM, first compound 0.000316 µM) was 32.8%, the viability, T/C (second compound 1 µM, first compound 0.001 µM) was 32.8% and the viability, T/C (second compound 1 µM, first compound 0.00316 µM) was 29.4%. For the same molecule, the viability, T/C (second compound 1 µM, first compound 0.01 µM) was 31.6%, the viability, T/C [7] was 29.6% and the viability, T/C [8] was 27.4%. It also gave a viability, T/C (second compound 3.16 µM, first compound 0.000316 µM) of 13.4%, a viability, T/C (second compound 3.16 µM, first compound 0.001 µM) of 14% and a viability, T/C (second compound 3.16 µM, first compound 0.00316 µM) of 12.8%. The viability, T/C (second compound 3.16 µM, first compound 0.01 µM) was 13.4%, the viability, T/C [9] was 13.3% and the viability, T/C [10] was 12.1%. For the same molecule, the viability, T/C (second compound 10 µM, first compound 0.000316 µM) was 3.72%, the viability, T/C (second compound 10 µM, first compound 0.001 µM) was 3.81% and the viability, T/C (second compound 10 µM, first compound 0.00316 µM) was 4.27%. The viability, T/C (second compound 10 µM, first compound 0.01 µM) was 3.81%, the viability, T/C [11] was 3.35% and the viability, T/C [12] was 2.96%.

`C#Cc1c(F)ccc2cc(O)cc(-c3ncc4c(N5CC6CCC(C5)N6)nc(OCC56CCCN5CC(F)C6)nc4c3F)c12` (centres undefined) + Cc1nc(NC(=O)N2CCCC2C(N)=O)sc1-c1ccnc(C(C)(C)C(F)(F)F)c1 was tested, and the IC50 (second compound 0.0316 µM) was 250 nM, the IC50 (second compound 0.1 µM) was 115 nM and the IC50 (second compound 0.316 µM) was less than 31.6 nM. The IC50 (second compound 1 µM) was less than 31.6 nM, the IC50 (second compound 3.16 µM) was less than 31.6 nM and the IC50 (second compound 10 µM) was less than 31.6 nM. It also gave a viability, T/C [1] of 88.3%, a viability, T/C [2] of 66.7% and a viability, T/C (second compound 0.0316 µM, first compound 0.316 µM) of 44.4%. The viability, T/C (second compound 0.0316 µM, first compound 1 µM) was 32.9%, the viability, T/C (second compound 0.0316 µM, first compound 3.16 µM) was 27.4% and the viability, T/C (second compound 0.0316 µM, first compound 10 µM) was 20%. For the same molecule, the viability, T/C [3] was 72.3%, the viability, T/C [4] was 51.2% and the viability, T/C (second compound 0.1 µM, first compound 0.316 µM) was 37.7%. The viability, T/C (second compound 0.1 µM, first compound 1 µM) was 26.1%, the viability, T/C (second compound 0.1 µM, first compound 3.16 µM) was 20.8% and the viability, T/C (second compound 0.1 µM, first compound 10 µM) was 16.4%. It also gave a viability, T/C [5] of 46%, a viability, T/C [6] of 30.1% and a viability, T/C (second compound 0.316 µM, first compound 0.316 µM) of 22.6%. For the same molecule, the viability, T/C (second compound 0.316 µM, first compound 1 µM) was 15.6%, the viability, T/C (second compound 0.316 µM, first compound 3.16 µM) was 11.7% and the viability, T/C (second compound 0.316 µM, first compound 10 µM) was 10.2%. It also gave a viability, T/C [7] of 27.2%, a viability, T/C [8] of 19.1% and a viability, T/C (second compound 1 µM, first compound 0.316 µM) of 13%. It also gave a viability, T/C (second compound 1 µM, first compound 1 µM) of 9.14%, a viability, T/C (second compound 1 µM, first compound 3.16 µM) of 7.33% and a viability, T/C (second compound 1 µM, first compound 10 µM) of 5.95%. The viability, T/C [9] was 11%, the viability, T/C [10] was 7.63% and the viability, T/C (second compound 3.16 µM, first compound 0.316 µM) was 5.67%. For the same molecule, the viability, T/C (second compound 3.16 µM, first compound 1 µM) was 4.44%, the viability, T/C (second compound 3.16 µM, first compound 3.16 µM) was 4% and the viability, T/C (second compound 3.16 µM, first compound 10 µM) was 1.21%. The viability, T/C [11] was 2.71%, the viability, T/C [12] was 3.19% and the viability, T/C (second compound 10 µM, first compound 0.316 µM) was 2.3%. It also gave a viability, T/C (second compound 10 µM, first compound 1 µM) of 2.05%, a viability, T/C (second compound 10 µM, first compound 3.16 µM) of 1.56% and a viability, T/C (second compound 10 µM, first compound 10 µM) of 0.74%.
